# Where two headings read alike, the source gives them in different places.
# Columns and labels:
# Assay in all cases: Agar dilution antibacterial test (MIC)
# Type in all cases: cell-based
# [1] = tested on: Salmonella X514
# Protocol: (§1) Fresh overnight cultures of test bacteria were diluted to approximately 1x(10)4 cells/microliter and applied in one microliter volumes to the surfaces of the agar plates. The innoculated plates were incubated overnight at 35° C. in ambient air. Minimum inhibitory concentration (mic) endpoints were recorded as the lowest antibiotic concentrations in micrograms per milliliter that inhibited the development of visible growth on the plates. The following summarizes the results of such tests with the compounds of the examples listed above.
# [2] = tested on: Staphylococcus aureus S13E
# Protocol: as §1
# [3] = tested on: Staphylococcus epidermidis 222
# Protocol: as §1
# [4] = tested on: Enterobacter aerogenes C32
# Protocol: as §1
# [5] = tested on: Staphylococcus pneumoniae Park 1
# Protocol: as §1
# [6] = tested on: Proteus incon PR33
# Protocol: as §1
# [7] = tested on: Morg morg PR15
# Protocol: as §1
# [8] = tested on: Enterococcus faecalis 2041
# Protocol: as §1
# [9] = tested on: Staphylococcus aureus X400
# Protocol: as §1
# [10] = tested on: Escherichia coli N10
# Protocol: as §1
# [11] = tested on: Escherichia coli EC14
# Protocol: as §1
# [12] = tested on: Escherichia coli TEM
# Protocol: as §1
# [13] = tested on: Enterobacter cloacae 265A
# Protocol: as §1
# [14] = tested on: Acom AC12
# Protocol: as §1
# [15] = tested on: Enterococcus faecium X66
# Protocol: as §1
# [16] = tested on: Proteus rett C24
# Protocol: as §1
# [17] = tested on: Shig sonn. N9
# Protocol: as §1
# [18] = tested on: Salmonella 1335
# Protocol: as §1
# [19] = tested on: Enterobacter aerogenes EB17
# Protocol: as §1
# [20] = tested on: Klebsiella pneumoniae X68
# Protocol: as §1
# [21] = tested on: Enterobacter cloacae EB5
# Protocol: as §1
# [22] = tested on: Staphylococcus aureus NRRL X1.1
# Protocol: as §1
# [23] = tested on: Klebsiella pneumoniae KAE
# Protocol: as §1
# [24] = tested on: Staphylococcus epidermidis EPI270
# Protocol: as §1
# [25] = tested on: Citro CF17
# Protocol: as §1
# [26] = tested on: Staphylococcus aureus V41
# Protocol: as §1
# [27] = tested on: Klebsiella pneumoniae X26
# Protocol: as §1
# [28] = tested on: Serratia X99
# Protocol: as §1
# [29] = tested on: Serratia SE3
# Protocol: as §1
# [30] = tested on: Haemophilus influenzae C.L.
# Protocol: as §1
# [31] = tested on: Haemophilus influenzae 76
# Protocol: as §1
# [32] = tested on: Staphylococcus pyogenes C203
# Protocol: as §1
# [33] = Klebsiella aerogenes, read-out: MIC
compound,measurement,setting,value
Nc1nc(C(=NO)C(=O)N[C@@H]2C(=O)N3C(C(=O)O)=C(C(F)(F)F)CC[C@H]23)cs1 [Compound 5],MIC,[1],.015 µg/mL
same,MIC,[2],4 µg/mL
same,MIC,[3],1 µg/mL
same,MIC,[4],.25 µg/mL
same,MIC,[5],.015 µg/mL
same,MIC,[6],.25 µg/mL
same,MIC,[7],2 µg/mL
same,MIC,[8],1 µg/mL
same,MIC,[9],8 µg/mL
same,MIC,[10],.125 µg/mL
same,MIC,[11],.03 µg/mL
same,MIC,[12],.03 µg/mL
same,MIC,[13],16 µg/mL
same,MIC,[14],2 µg/mL
same,MIC,[15],8 µg/mL
same,MIC,[16]; Proteus rett C24,.125 µg/mL
same,MIC,[17],.06 µg/mL
same,MIC,[18],.06 µg/mL
same,MIC,[19],.06 µg/mL
same,MIC,[20],.06 µg/mL
same,MIC,[21],.125 µg/mL
same,MIC,[22],1 µg/mL
same,MIC,[23],.06 µg/mL
same,MIC,[24],4 µg/mL
same,MIC,[25],16 µg/mL
same,MIC,[26],2 µg/mL
same,MIC,[27],.015 µg/mL
same,MIC,[28],.5 µg/mL
same,MIC,[29],8 µg/mL
N[C@@H](C(=O)N[C@@H]1C(=O)N2C(C(=O)O)=C(C(F)(F)F)CC[C@H]12)c1cccc(Br)c1 [Compound 7],MIC,[1]; read-out: MIC,4 µg/mL
same,MIC,[2],8 µg/mL
same,MIC,[3]; read-out: MIC,1 µg/mL
same,MIC,[4]; [33],16 µg/mL
same,MIC,"[5]; PARK1, read-out: MIC",0.125 µg/mL
same,MIC,[6]; read-out: MIC,8 µg/mL
same,MIC,[7]; read-out: MIC,16 µg/mL
same,MIC,[8]; read-out: MIC,8 µg/mL
same,MIC,[9]; read-out: MIC,16 µg/mL
same,MIC,[30]; read-out: MIC,0.5 µg/mL
same,MIC,[10]; read-out: MIC,8 µg/mL
same,MIC,[11]; read-out: MIC,4 µg/mL
same,MIC,[12]; read-out: MIC,4 µg/mL
same,MIC,[13]; read-out: MIC,64 µg/mL
same,MIC,[15]; read-out: MIC,16 µg/mL
same,MIC,[16],128 µg/mL
same,MIC,[18]; read-out: MIC,16 µg/mL
same,MIC,[19]; [33],32 µg/mL
same,MIC,[20]; read-out: MIC,4 µg/mL
same,MIC,[21]; read-out: MIC,64 µg/mL
same,MIC,"[22]; NRRLX1.1, read-out: MIC",1 µg/mL
same,MIC,[31]; read-out: MIC,1 µg/mL
same,MIC,[23]; read-out: MIC,16 µg/mL
same,MIC,[24]; read-out: MIC,1 µg/mL
same,MIC,[32]; read-out: MIC,0.125 µg/mL
same,MIC,[25]; read-out: MIC,32 µg/mL
same,MIC,[26]; read-out: MIC,4 µg/mL
same,MIC,[27]; read-out: MIC,0.25 µg/mL
same,MIC,[28]; read-out: MIC,64 µg/mL
same,MIC,[29],> 128 µg/mL
N[C@@H](C(=O)N[C@@H]1C(=O)N2C(C(=O)O)=C(C(F)(F)F)CC[C@H]12)c1cccc(F)c1 [Compound 8],MIC,[1]; read-out: MIC,2 µg/mL
same,MIC,[2],32 µg/mL
same,MIC,[3]; read-out: MIC,4 µg/mL
same,MIC,[4]; [33],16 µg/mL
same,MIC,"[5]; PARK1, read-out: MIC",0.25 µg/mL
same,MIC,[6]; read-out: MIC,16 µg/mL
same,MIC,[7]; read-out: MIC,32 µg/mL
same,MIC,[8]; read-out: MIC,32 µg/mL
same,MIC,[9]; read-out: MIC,64 µg/mL
same,MIC,[30]; read-out: MIC,2 µg/mL
same,MIC,[10]; read-out: MIC,4 µg/mL
same,MIC,[11]; read-out: MIC,4 µg/mL
same,MIC,[12]; read-out: MIC,2 µg/mL
same,MIC,[13]; read-out: MIC,32 µg/mL
same,MIC,[15]; read-out: MIC,64 µg/mL
same,MIC,"[16]; Proteus rett C24, read-out: MIC",16 µg/mL
same,MIC,[17]; read-out: MIC,2 µg/mL
same,MIC,[18]; read-out: MIC,4 µg/mL
same,MIC,[19]; [33],8 µg/mL
same,MIC,[20]; read-out: MIC,2 µg/mL
same,MIC,[21]; read-out: MIC,16 µg/mL
same,MIC,"[22]; NRRLX1.1, read-out: MIC",2 µg/mL
same,MIC,[31]; read-out: MIC,2 µg/mL
same,MIC,[23]; read-out: MIC,16 µg/mL
same,MIC,[24]; read-out: MIC,4 µg/mL
same,MIC,[32]; read-out: MIC,0.06 µg/mL
same,MIC,[25]; read-out: MIC,16 µg/mL
same,MIC,[26]; read-out: MIC,16 µg/mL
same,MIC,[27]; read-out: MIC,2 µg/mL
same,MIC,[28]; read-out: MIC,32 µg/mL
same,MIC,[29]; read-out: MIC,64 µg/mL
"NC(C(=O)N[C@@H]1C(=O)N2C(C(=O)O)=C(C(F)(F)F)CC[C@H]12)c1cccc(C(F)(F)F)c1 (stereo partly drawn) [Compound 9, [6R,7S]-7-β-[D-α-(amino)-3-trifluoromethylphenylacetylamino]-3-trifluoromethyl-1-carba-1-carba-1-dethia3-cephem-4-carboxylic acid]",MIC,[1],32 µg/mL
same,MIC,[2],16 µg/mL
same,MIC,[3],1 µg/mL
same,MIC,[4],128 µg/mL
same,MIC,[5],.125 µg/mL
same,MIC,[6],32 µg/mL
same,MIC,[7],32 µg/mL
same,MIC,[8],16 µg/mL
same,MIC,[9],16 µg/mL
same,MIC,[30],1 µg/mL
same,MIC,[10],32 µg/mL
same,MIC,[11],8 µg/mL
same,MIC,[12],16 µg/mL
same,MIC,[13],128 µg/mL
same,MIC,[14],32 µg/mL
same,MIC,[15],32 µg/mL
same,MIC,[16]; Proteus rett C24,64 µg/mL
same,MIC,[18],64 µg/mL
same,MIC,[19],128 µg/mL
same,MIC,[20],16 µg/mL
same,MIC,[21],4 µg/mL
same,MIC,[22],2 µg/mL
same,MIC,[31],1 µg/mL
same,MIC,[23],64 µg/mL
same,MIC,[24],4 µg/mL
same,MIC,[32],6 µg/mL
same,MIC,[25],128 µg/mL
same,MIC,[26],4 µg/mL
same,MIC,[27],1 µg/mL
same,MIC,[28],128 µg/mL
same,MIC,[29],> 128 µg/mL
